Values after ≈ are worked out from the molar mass of the structure shown. Read-outs that look alike come from different tables or passages of the source.
Assays:
Fusarium roseum = conditions: for Inhibition of the growth of the Fusarium roseum fungi: compound in methanol, more than 10 days at 20° C.; for Inhibition of the growth of the fungi: compound in DMSO, 10 days at 20° C.
Description: (§1) The antifungal activity of the N-alkyl-glycosyl(di)amine derivatives of formula (I) and of the N-alkyl-glycamine derivatives of formula (III) synthesized according to the process of the invention was evaluated on two fungi: Fusarium roseum and Fusarium sambucinum.
(§2) For this, 500 μl of solution comprising the test derivative, dissolved in DMSO or methanol, are mixed with 19.5 ml of malt agar medium (Sigma aldrich) allowing the growth of these two Fusarium isolates. The test derivative is prepared in 2 ml of methanol, then mixed with 18 ml of malt agar medium (Sigma aldrich). A spot of 10 μl of culture of each Fusarium is then deposited at the center of each Petri dish. After 10 days of incubation at 20° C., the growth diameters are measured.
(§3) The range of concentrations of N-alkyl-glycosyl(di)amine derivatives of formula (I) tested ranges from 0.1 to 25 μmol/ml.
(§4) The Fusarium growth on media containing the various molecules is compared with that obtained only with DMSO or methanol.
(§5) The same antifungal evaluation protocol as the one previously described with the compound Ij was applied for other N-alkyl-glycosyl(di)amine derivatives of formula (I) and N-alkyl-glycamine derivatives of formula (III) at concentrations ranging from 1 to 20 μmol/ml.
(§6) 2 ml of solution comprising the test compound dissolved in methanol are mixed with 18 ml of agar malt medium (Sigma aldrich) allowing the growth of these two Fusarium isolates. A spot of 10 μl of culture of each Fusarium is then deposited at the center of each Petri dish. After more than 10 days of incubation at 20° C., the growth diameters are measured.

[1] = test system: Agrobacterium tumefaciens; assay: Antibacterial activity (MIC and MBC) in TY medium; type: cell-based; conditions: 36 h of culture at 30° C.; for MIC: TY medium; for MBC: plated on TY agar
Fusarium sambucinum = conditions: for Inhibition of the growth of the Fusarium sambucinum fungi: compound in methanol, more than 10 days at 20° C.; for Inhibition of the growth of the fungi: compound in DMSO, 10 days at 20° C.
Description: as §1, §2, §3, §4, §5, §6

[2] = test system: Agrobacterium tumefaciens, Pectobacterium atrosepticum and Dickeya dianthicola bacteria; assay: Antibacterial activity, summary statements over the bacteria tested; type: cell-based; conditions: for inhibition of the growth of the bacteria (in words): after 36 h of incubation at 30° C., compared with 4-NPO
[3] = test system: Pectobacterium atrosepticum; assay: Antibacterial activity (MIC and MBC) in TY medium; type: cell-based; conditions: 36 h of culture at 30° C.; for MIC: TY medium; for MBC: plated on TY agar
Phytophthora infestans = assay: microbe, parasite or virus in culture; type: cell-based; conditions: after 6 days; 20 mg in 200 μl distilled water, spots of 10 μl

SMILES | Inhibition of the growth of the Fusarium roseum fungi (Fusarium roseum; 1 μmol/ml) [%] | Inhibition of the growth of the Fusarium roseum fungi (Fusarium roseum; 2.5 μmol/ml) [%] | Inhibition of the growth of the Fusarium roseum fungi (Fusarium roseum; 5 μmol/ml) [%] | Inhibition of the growth of the Fusarium roseum fungi (Fusarium roseum; 10 μmol/ml) [%] | Inhibition of the growth of the Fusarium roseum fungi (Fusarium roseum; 20 μmol/ml) [%] | MIC [1] [µg/mL] | Inhibition of the growth of the Fusarium sambucinum fungi (Fusarium sambucinum; 1 μmol/ml) [%] | Inhibition of the growth of the Fusarium sambucinum fungi (Fusarium sambucinum; 2.5 μmol/ml) [%] | Inhibition of the growth of the Fusarium sambucinum fungi (Fusarium sambucinum; 5 μmol/ml) [%] | Inhibition of the growth of the Fusarium sambucinum fungi (Fusarium sambucinum; 10 μmol/ml) [%] | Inhibition of the growth of the Fusarium sambucinum fungi (Fusarium sambucinum; 20 μmol/ml) [%] | inhibition of the growth of the bacteria (in words) [2] | MIC [3] [µg/mL] | MBC [3] [µg/mL] | MBC [1] [µg/mL] | bactericidal activity (in words) [2] | other results
CCCCCNC1OC(C)[C@H](O)C(O)C1O (stereo partly drawn) [compound Ic] | 0 | 18 | 99 | 99 | 100 | 125 (≈ 536 µM) | 10 | 33 | 89 | 90 | 100 | inhibition of the growth of the bacteria was observed | 62.5 (≈ 268 µM) | >500 |  |  | 
CCCCCNC1OC(C)[C@H](O)C(O)C1O (stereo partly drawn) [compound Id] |  |  |  |  |  | 62.5 (≈ 268 µM) |  |  |  |  |  | inhibition of the growth of the bacteria was observed | 62.5 (≈ 268 µM) | 250 (≈ 1070 µM) | 250 (≈ 1070 µM) | showed a bactericidal activity | 
CC1OC(NCCCCCNC2OC(C)[C@H](O)C(O)C2O)C(O)C(O)[C@H]1O (stereo partly drawn) [compound If] |  |  |  |  |  | >500 |  |  |  |  |  | inhibition of the growth of the bacteria was observed | 250 (≈ 634 µM) |  |  |  | 
CC1OC(NCCCCCNC2OC(C)[C@H](O)C(O)C2O)C(O)C(O)[C@H]1O (stereo partly drawn) [compound Ih] | 0 | 28 | 90 | 93 | 93 | 62.5 (≈ 158 µM) | 12 | 27 | 100 | 100 | 100 | inhibition of the growth of the bacteria was observed | 62.5 (≈ 158 µM) | 125 (≈ 317 µM) | 500 (≈ 1270 µM) | showed a bactericidal activity | 
CC1OC(NCCCCCCCCCCCCN)C(O)C(O)C1O (stereo not drawn) [compound Ii] | 0 | 34 | 93 | 93 | 100 | 16 (≈ 46.2 µM) | 28 | 60 | 100 | 100 | 100 |  | 8 (≈ 23.1 µM) | 16 (≈ 46.2 µM) | 32 (≈ 92.3 µM) | showed a bactericidal activity | 
CCCCCCCCCCCCNC1OC(CO)C(O)C(O)C1O (stereo not drawn) [compound Ij] |  |  |  |  |  | 8 (≈ 23 µM) |  |  |  |  |  | inhibition of the growth of the bacteria was observed | 16 (≈ 46 µM) |  | 16 (≈ 46 µM) | showed a bactericidal activity | Inhibition of the growth of the fungi (Fusarium roseum; 1 μmol/ml): 100%; Inhibition of the growth of the fungi (Fusarium roseum; 2.5 μmol/ml): 100%; Inhibition of the growth of the fungi (Fusarium roseum; 5 μmol/ml): 100%; Inhibition of the growth of the fungi (Fusarium roseum; 10 μmol/ml): 100%; Inhibition of the growth of the fungi (Fusarium roseum; 20 μmol/ml): 100%; Inhibition of the growth of the fungi (Fusarium roseum; 25 μmol/ml): 100%; Inhibition of the growth of the fungi (Fusarium sambucinum; 1 μmol/ml): 50%; Inhibition of the growth of the fungi (Fusarium sambucinum; 2.5 μmol/ml): 50%; Inhibition of the growth of the fungi (Fusarium sambucinum; 5 μmol/ml): 100%; Inhibition of the growth of the fungi (Fusarium sambucinum; 10 μmol/ml): 100%; Inhibition of the growth of the fungi (Fusarium sambucinum; 20 μmol/ml): 100%; Inhibition of the growth of the fungi (Fusarium sambucinum; 25 μmol/ml): 100%; Average diameters of inhibition zone (Phytophthora infestans): 24 mm
CCCCCCCCCCCCNC1OC(CO)C(O)C(O)C1O (stereo not drawn) [compound Ik] | 96 | 96 | 96 |  |  | 2 (≈ 5.76 µM) | 96 | 96 | 96 |  |  | inhibition of the growth of the bacteria was observed | 16 (≈ 46 µM) | 32 (≈ 92.1 µM) |  | showed a bactericidal activity | Average diameters of inhibition zone (Phytophthora infestans): 24 mm
